This is an account of results in the NIST ThermoML archive (doi:10.1016/j.tca.2012.01.024).

This data set is described as follows: excess molar enthalpy (molar enthalpy of mixing); xn = mol fraction of the nth substance listed. The conditions noted are these: 1273.2 K, 101 kPa, Liquid, Calvet calorimetry.

± gives the expanded uncertainty stated by the source.

As to `[Ni]` [nickel] + [Sn], the excess molar enthalpy (x1 = 0.213) was -2.29 ± 0.0232 kcal/mol. As to `[Ni]` [nickel] + [Sb], the excess molar enthalpy (x1 = 0.2109) was -2.58 ± 0.0263 kcal/mol. Turning to `[Sb]` [antimony] + [Sn], the excess molar enthalpy reads like this: (x1 = 0.2665) -0.257 ± 0.00287 kcal/mol; (x1 = 0.4886) -0.315 ± 0.00335 kcal/mol; (x1 = 0.7372) -0.233 ± 0.00263 kcal/mol.
